Experimental data published in patent US20230382924A1, “MODULATORS OF CYSTIC FIBROSIS TRANSMEMBRANE CONDUCTANCE REGULATOR” (VERTEX PHARMACEUTICALS INCORPORATED, priority 2020, published 2023).
“And” between values parts separate entries of the source, which are not always exact repeats. Equal entries are not always repeated. Where two headings read alike, the source gives them in different places. Values belong to the molecule of their own block, whether it stands above or below them.

Legend:
[1] = molecular target: T1, F508del (Homo sapiens, UniProt P13569, DEL508-508); assay: 3T3 assay: membrane potential optical assay for F508del correction in NIH 3T3 cells; format: cell-based; conditions: for Emax: NIH3T3, read-out: 3T3 Max Activity
T1 construct: expressed in transfected cells
From the text: 1. Membrane Potential Optical Methods for Assaying F508del Modulation Properties of Compounds
The assay utilizes fluorescent voltage sensing dyes to measure changes in membrane potential using a fluorescent plate reader (e.g., FLIPR III, Molecular Devices, Inc.) as a readout for increase in functional F508del in NIH 3T3 cells. The driving force for the response is the creation of a chloride ion gradient in conjunction with channel activation by a single liquid addition step after the cells have previously been treated with compounds and subsequently loaded with a voltage sensing dye.
2. Identification of Corrector Compounds
To identify correctors of F508del, a single-addition HTS assay format was developed. This HTS assay utilizes fluorescent voltage sensing dyes to measure changes in membrane potential on the FLIPR III as a measurement for increase in gating (conductance) of F508del in F508del NIH 3T3 cells. The F508del NIH 3T3 cell cultures were incubated with the corrector compounds at a range of concentrations for 18-24 hours at 37° C., and subsequently loaded with a redistribution dye. The driving force for the response is a Cl^− ion gradient in conjunction with channel activation with forskolin in a single liquid addition step using a fluorescent plate reader such as FLIPR III.
Bath Solution #1: (in mM) NaCl 160, KCl 4.5, CaCl2) 2, MgCl2 1, HEPES 10, pH 7.4 with NaOH.
Chloride-free bath solution: Chloride salts in Bath Solution #1 (above) are substituted with gluconate salts.
NIH3T3 mouse fibroblasts stably expressing F508del are used for optical measurements of membrane potential. The cells are maintained at 37° C. in 5% CO2 and 90% humidity in Dulbecco's modified Eagle's medium supplemented with 2 mM glutamine, 10% fetal bovine serum, 1×NEAA, b-ME, 1×pen/strep, and 25 mM HEPES in 175 cm^2 culture flasks. For all optical assays, the cells were seeded at ˜20,000/well in 384-well matrigel-coated plates. For the correction assays, the cells are cultured at 37° C. with and without compounds for 16-24 hours.

[2] = molecular target: T2, CFTR (Homo sapiens, UniProt P13569); assay: Membrane Potential Dye, Enteroid Assay A; format: cell-based; conditions: for EC50: read-out: Ent. A EC50
Summary of the method: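 Enteroid cells were loaded with methyl oxonol membrane potential dye (plus CaCCinh-A01 and Chicago Sky Blue) for 25 min at room temperature. Chloride transport was started by switching to chloride-free gluconate stimulation solution, with fluorescence read for 15 min. Activity was expressed as % of a triple-combination CFTR modulator control (3 μM, 3 μM, 300 nM acute).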

[3] = molecular target: T2, CFTR; assay: Membrane Potential Dye, Enteroid Assay B; format: cell-based; conditions: for EC50: read-out: Ent. B EC50
Summary of the method: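 Enteroid cells loaded 25 min at room temperature with 20 μM methyl oxonol plus 30 μM CaCCinh-A01 and 30 μM Chicago Sky Blue, then switched to chloride-free gluconate buffer. Chloride transport was started by chloride-free stimulation solution, with fluorescence read for 15 min.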

[4] = NIH 3T3 cells, F508del correction

T2 sequence (P13569 with tags, fused parts or gaps DEL508-508): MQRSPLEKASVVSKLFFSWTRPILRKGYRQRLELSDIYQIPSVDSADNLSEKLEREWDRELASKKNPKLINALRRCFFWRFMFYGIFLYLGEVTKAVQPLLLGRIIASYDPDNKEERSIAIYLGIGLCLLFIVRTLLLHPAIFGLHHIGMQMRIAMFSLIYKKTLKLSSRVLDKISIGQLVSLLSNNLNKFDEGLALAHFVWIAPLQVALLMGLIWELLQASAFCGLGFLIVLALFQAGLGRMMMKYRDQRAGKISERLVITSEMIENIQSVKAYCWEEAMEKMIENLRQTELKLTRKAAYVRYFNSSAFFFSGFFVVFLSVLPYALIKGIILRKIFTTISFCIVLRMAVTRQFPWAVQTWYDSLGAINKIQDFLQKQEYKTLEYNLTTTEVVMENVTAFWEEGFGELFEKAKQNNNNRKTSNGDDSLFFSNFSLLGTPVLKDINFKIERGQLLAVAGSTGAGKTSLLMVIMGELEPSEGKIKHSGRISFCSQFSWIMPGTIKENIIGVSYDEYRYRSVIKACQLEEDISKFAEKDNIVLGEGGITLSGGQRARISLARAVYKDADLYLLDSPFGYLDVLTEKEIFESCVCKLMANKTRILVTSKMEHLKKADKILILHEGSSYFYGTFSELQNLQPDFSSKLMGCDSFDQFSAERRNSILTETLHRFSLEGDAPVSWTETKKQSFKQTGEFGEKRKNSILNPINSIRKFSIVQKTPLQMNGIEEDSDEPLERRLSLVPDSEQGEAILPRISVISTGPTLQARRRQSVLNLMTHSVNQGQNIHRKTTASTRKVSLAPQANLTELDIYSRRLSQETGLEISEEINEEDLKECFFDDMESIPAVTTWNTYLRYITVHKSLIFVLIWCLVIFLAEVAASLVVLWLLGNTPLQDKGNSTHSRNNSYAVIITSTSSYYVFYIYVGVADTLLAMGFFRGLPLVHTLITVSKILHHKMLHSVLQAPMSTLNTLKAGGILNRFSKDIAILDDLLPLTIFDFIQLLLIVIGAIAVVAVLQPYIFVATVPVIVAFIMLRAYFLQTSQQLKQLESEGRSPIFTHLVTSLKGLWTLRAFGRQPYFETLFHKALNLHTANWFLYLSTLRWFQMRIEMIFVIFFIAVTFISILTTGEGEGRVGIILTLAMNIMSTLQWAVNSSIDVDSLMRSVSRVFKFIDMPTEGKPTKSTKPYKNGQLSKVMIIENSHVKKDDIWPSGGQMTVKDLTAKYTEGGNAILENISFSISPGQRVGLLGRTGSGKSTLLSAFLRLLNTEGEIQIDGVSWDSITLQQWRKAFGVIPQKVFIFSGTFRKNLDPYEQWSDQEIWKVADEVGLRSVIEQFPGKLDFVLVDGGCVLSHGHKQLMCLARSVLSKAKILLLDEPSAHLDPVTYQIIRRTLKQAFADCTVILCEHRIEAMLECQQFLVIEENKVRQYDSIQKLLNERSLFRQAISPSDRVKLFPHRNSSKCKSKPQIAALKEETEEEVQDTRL
T1 sequence (P13569 with tags, fused parts or gaps DEL508-508): as above

Compound: Cc1cccc(C)c1-c1cc2nc(n1)NS(=O)(=O)c1cccc(c1)C(=O)NCC(c1ccc(C3CCC3)cc1)O2 (stereo not shown)
ring closure, yield after HPLC (from Cc1cccc(C)c1-c1cc(OC(CN)c2ccc(C3CCC3)cc2)nc(NS(=O)(=O)c2cccc(C(=O)O)c2)n1, amide bond, 13-membered ring, HATU/DIEA, DMF, 189.0 mM, 25.0 °C, 0.5 h): 1%

Compound: Cc1cccc(C)c1-c1nc2cc(n1)OC[C@@H](CC(C)C)NC(=O)c1cccc(c1)S(=O)(=O)N2
ring closure, yield after HPLC (from Cc1cccc(C)c1-c1nc(NS(=O)(=O)c2cccc(C(=O)O)c2)cc(OC[C@H](N)CC(C)C)n1, amide bond, 13-membered ring, HATU/TEA, DMF, 12.2 mM, 25.0 °C, 0.083 h): 32%

Compound: Cc1cccc(C)c1-c1cc2nc(n1)NS(=O)(=O)c1cccc(c1)C(=O)NC[C@H](c1ccccc1)O2 [Compound 26, (10S)-6-(2,6-Dimethylphenyl)-2,2-dioxo-10-phenyl-9-oxa-2λ^6-thia-3,5,12,19-tetrazatricyclo[12.3.1.14,8]nonadeca-1(18),4(19),5,7,14,16-hexaen-13-one]
ring closure, yield after HPLC (from Cc1cccc(C)c1-c1cc(O[C@H](CN)c2ccccc2)nc(NS(=O)(=O)c2cccc(C(=O)O)c2)n1, amide bond, 13-membered ring, HATU/DIEA, DMF, 25.9 mM, 25.0 °C, 1.0 h, 2 steps): 38%

Compound: Cc1cccc(C)c1-c1cc2nc(n1)NS(=O)(=O)c1cccc(c1)C(=O)NC[C@H](C)O2 [Compound 27, (10S)-6-(2,6-Dimethylphenyl)-10-methyl-2,2-dioxo-9-oxa-2λ^6-thia-3,5,12,19-tetrazatricyclo[12.3.1.14,8]nonadeca-1(18),4(19),5,7,14,16-hexaen-13-one]
ring closure, yield after HPLC (from Cc1cccc(C)c1-c1cc(O[C@@H](C)CN)nc(NS(=O)(=O)c2cccc(C(=O)O)c2)n1, amide bond, 13-membered ring, HATU/DIEA, DMF, 25.0 °C, 1.0 h, 2 steps): 55%

Compound: Cc1cccc(C)c1-c1cc2nc(n1)NS(=O)(=O)c1cccc(c1)C(=O)N[C@H](CC(C)C)C(c1ccc(C(C)(C)C)cc1)O2 (stereo partly shown)
ring closure, yield after HPLC (from Cc1cccc(C)c1-c1cc(OC(c2ccc(C(C)(C)C)cc2)[C@H](N)CC(C)C)nc(NS(=O)(=O)c2cccc(C(=O)O)c2)n1, amide bond, 13-membered ring, HATU/NaOtBu, DMF/THF, 69.4 mM, 25.0 °C, 2.0 h, 2 steps): 21% and 15%

Compound: Cc1cccc(C)c1-c1cc2nc(n1)NS(=O)(=O)c1cccc(c1)C(=O)NCC(c1ccc([Si](C)(C)C)cc1)O2 (stereo not shown)
ring closure, yield after HPLC (from Cc1cccc(C)c1-c1cc(OC(CN)c2ccc([Si](C)(C)C)cc2)nc(NS(=O)(=O)c2cccc(C(=O)O)c2)n1, amide bond, 13-membered ring, HATU/DIEA, DMF, 55.1 mM, 25.0 °C, 0.5 h): 23%

Compound: Cc1cccc(C)c1-c1cc2nc(n1)NS(=O)(=O)c1cccc(c1)C(=O)NC[C@H](CO[Si](c1ccccc1)(c1ccccc1)C(C)(C)C)O2
ring closure, yield after HPLC (from Cc1cccc(C)c1-c1cc(O[C@H](CN)CO[Si](c2ccccc2)(c2ccccc2)C(C)(C)C)nc(NS(=O)(=O)c2cccc(C(=O)O)c2)n1, amide bond, 13-membered ring, HATU/DIEA, DMF, 30.8 mM, 25.0 °C, 1.0 h, 2 steps): 98%

Compound: Cc1cccc(C)c1-c1cc2nc(n1)NS(=O)(=O)c1cccc(c1)C(=O)NC1CC(CN(CCC(C)(C)C)C1)O2 (stereo not shown)
ring closure, yield after HPLC (from Cc1cccc(C)c1-c1cc(Cl)nc(NS(=O)(=O)c2cccc(C(=O)NC3CC(O)CN(CCC(C)(C)C)C3)c2)n1, snar bond, 14-membered ring, NaH, NMP, 5.8 mM, 70.0 °C, 2.0 h, 2 steps): 2% | ring closure, yield after HPLC (from Cc1cccc(C)c1-c1cc(Cl)nc(NS(=O)(=O)c2cccc(C(=O)NC3CC(O)CN(CCC(C)(C)C)C3)c2)n1, snar bond, 14-membered ring, NaH, NMP, 9.2 mM, 70.0 °C, 2.0 h, 2 steps): 3%

Compound: Cc1cccc(C)c1-c1cc2nc(n1)NS(=O)(=O)C1CCC1C(=O)N[C@H](CC(C)C)CO2 (stereo partly shown)
ring closure, yield after HPLC (from Cc1cccc(C)c1-c1cc(OC[C@H](N)CC(C)C)nc(NS(=O)(=O)C2CCC2C(=O)O)n1, amide bond, 12-membered ring, HATU/DIEA, DMF, 42.9 mM, 25.0 °C, 0.083 h, 2 steps): 4% and 8%

Compound: CC1=C(c2cc3nc(n2)NS(=O)(=O)c2cccc(c2)C(=O)N[C@H](CC(C)C)CO3)C(C)CCC1 (stereo partly drawn) [Compound 100, (11R)-6-(2,6-Dimethylcyclohex-1-en-1-yl)-11-(2-methylpropyl)-9-oxa-2λ^6-thia-3,5,12,19-tetraazatricyclo[12.3.1.14,8]nonadeca-1(17),4,6,8(19),14(18),15-hexaene-2,2,13-trione]
Emax ([1]; Table 8): > 60% | EC50 ([1]; Table 8): < 1000 nM | Ent. A Max Activity ([2]; Table 8): +++ (+++ is >60%) | EC50 ([2]; Table 8): 1000 to 3000 nM

More lines, main results first:

Emax ([1]; Table 8): > 60% | EC50 ([1]; Table 8): < 1000 nM | Ent. A Max Activity ([2]; Table 8): +++ (+++ is >60%) | EC50 ([2]; Table 8): 1000 to 3000 nM | Ent. B Max Activity ([3]; Table 8): ++ (++ is 306%) | EC50 ([3]; Table 8): < 1000 nM
Compound: Cc1cccc(C)c1-c1cc2nc(n1)NS(=O)(=O)c1ccnc(c1)C(=O)N[C@H](CC1CCCCC1)CO2 [Compound 142]

Ent. A Max Activity ([2]; Table 9): ++ (++ is 30-60%) | EC50 ([2]; Table 9): < 1000 nM
Compound: Cc1cccc(C)c1-c1cc2nc(n1)NS(=O)(=O)c1cccc(c1)C(=O)N[C@H](C)[C@H](c1ccc(C(F)(F)F)cc1)O2 [Compound 42, (10S,11R)-6-(2,6-dimethylphenyl)-11-methyl-2,2-dioxo-10-[4-(trifluoromethyl)phenyl]-9-oxa-2λ^6-thia-3,5,12,19-tetrazatricyclo[12.3.1.14,8]nonadeca-1(18),4(19),5,7,14,16-hexaen-13-one]
ring closure, yield after HPLC (from Cc1cccc(C)c1-c1cc(O[C@@H](c2ccc(C(F)(F)F)cc2)[C@@H](C)N)nc(NS(=O)(=O)c2cccc(C(=O)O)c2)n1, amide bond, 13-membered ring, HATU/NaOtBu, DMF/THF, 96.3 mM, 25.0 °C, 0.33 h, 2 steps): 4%

EC50 ([2]; Table 8): 3000 to 30000 nM
Compound: Cc1cccc(C)c1-c1cc2nc(n1)NS(=O)(=O)c1cccc(c1)C(=O)NCC(C(=O)NCCC(C)(C)C)O2 (stereo not shown) [Compound 30, N-(3,3-Dimethylbutyl)-6-(2,6-dimethylphenyl)-2,2,13-trioxo-9-oxa-2λ^6-thia-3,5,12,19-tetrazatricyclo[12.3.1.14,8]nonadeca-1(18),4(19),5,7,14,16-hexaene-10-carboxamide]
ring closure, yield after HPLC (from Cc1cccc(C)c1-c1cc(OC(CN)C(=O)NCCC(C)(C)C)nc(NS(=O)(=O)c2cccc(C(=O)O)c2)n1, amide bond, 13-membered ring, HATU/DIEA, DMF, 30.2 mM, 25.0 °C, 0.25 h): 28%

Emax ([1]; Table 8): > 60% | EC50 ([1]; Table 8): < 1000 nM | Ent. A Max Activity ([2]; Table 8): +++ (+++ is >60%) | EC50 ([2]; Table 8): < 1000 nM | Ent. B Max Activity ([3]; Table 8): +++ (+++ is >60%) | EC50 ([3]; Table 8): < 1000 nM
Compound: Cc1cccc(C)c1-c1cc2nc(n1)NS(=O)(=O)c1cccc(c1)C(=O)NC[C@@H](c1ccc(C(C)(C)C)cc1)O2 (single isomer, unassigned) [Compound 5]

EC50 [1, 4]: < 1000 nM | Ent. A Max Activity ([2]; Enteroid Assay A): +++ (+++ is >600%) | EC50 ([2]; Enteroid Assay A): < 1000 nM | EC50 ([3]; Enteroid Assay B): < 1000 nM
Compound: Cc1cccc(C)c1-c1cc2nc(n1)NS(=O)(=O)c1cccc(c1)C(=O)N[C@H](CC(C)(C)C)CO2 [Compound 97, (11R)-6-(2,6-dimethylphenyl)-11-(2,2-dimethylpropyl)-2,2-dioxo-9-oxa-2λ^6-thia-3,5,12,19-tetrazatricyclo[12.3.1.14,8]nonadeca-1(18),4(19),5,7,14,16-hexaen-13-one]

EC50 [1, 4]: < 1000 nM | Ent. A Max Activity ([2]; Enteroid Assay A): +++ (+++ is >600%) | EC50 ([2]; Enteroid Assay A): < 1000 nM | EC50 ([3]; Enteroid Assay B): < 1000 nM
Compound: Cc1cccc(C)c1-c1cc2nc(n1)NS(=O)(=O)c1cccc(c1)C(=O)N[C@H](CC1CCCCC1)CO2 [Compound 365]

Emax ([1]; Table 8): > 60% | EC50 ([1]; Table 8): < 1000 nM | Ent. A Max Activity ([2]; Table 8): +++ (+++ is >60%) | EC50 ([2]; Table 8): < 1000 nM
Compound: Cc1cccc(C)c1-c1cc2nc(n1)NS(=O)(=O)c1cccc(c1)C(=O)NCC(c1ccc(C3(C(F)(F)F)CC3)cc1)O2 (racemic) [Compound 9, 6-(2,6-dimethylphenyl)-10-{4-[1-(trifluoromethyl)cyclopropyl]phenyl}-9-oxa-2λ^6-thia-3,5,12,19-tetraazatricyclo[12.3.1.14,8]nonadeca-1(18),4(19),5,7,14,16-hexaene-2,2,13-trione]

EC50 [1, 4]: < 1000 nM | Ent. A Max Activity ([2]; Enteroid Assay A): +++ (+++ is >600%) | EC50 ([2]; Enteroid Assay A): < 1000 nM
Compound: Cc1ccccc1-c1cc2nc(n1)NS(=O)(=O)c1cccc(c1)C(=O)N[C@H](CC1CCCCC1)CO2 [Compound 316]
